Data from patent publication US20220308044A1, “NOVEL LIVE-CELL ASSAY FOR NEURONAL ACTIVITY” (UNIVERSITY OF UTAH RESEARCH FOUNDATION, priority 2019, published 2022).

Columns and labels:
[1] = test system: WT neurons; experiment: Secreted Neuronal Activity Reporter (SNAR) dual secreted luciferase assay in primary neuronal cultures; assay type: cell-based, mouse; settings: for effect of individual inhibitors on SNAR activity: prolonged treatment, FIG. 3A
[2] = test system: CamKII neurons; experiment: Cre-dependent (floxed) SNAR assay with CamKII:Cre; assay type: cell-based, mouse; settings: FIG. 6C
Protocol: Plasmid Cloning. The SNAR construct was synthesized by first introducing 2 core SARE (cSARE) sequences into an AAV vector backbone that included the Arc minimal promoter and the Gaussia luciferase coding sequences using inFusion cloning. A single cSARE sequence was synthesized using a long primer that was then used as a PCR template. Two additional cSARE sequences were then added, one at a time preceding the first 2 cSAREs. The entire 4× cSARE-ArcMin-Gluc was then cloned as an insert into an FCK vector (Addgene, Watertown, Mass.; catalog no. 51694) using restriction enzymes PacI and EcoRI for use as a transfer plasmid and packaging into lentivirus particles. Secreted Nanoluciferase (sNluc) was obtained by adding the Ig-kappa signal peptide to its N-terminus using a long primer. sNluc was then inserted into an FCK vector with the hPGK promoter. Each construct was then cloned into a DIO vector backbone (Addgene, Watertown, Mass.; catalog no. 87168) to obtain a Cre-dependent expression construct. […]
Luciferase Assays. To determine luciferase activity luminescencence from media samples was measured. […] For substrates, Coelenterazine (CTZ)-native (NanoLight Technology, Pinetope, Ariz.; catalog no. 303) and FMZ (Promega NanoGlo Assay; Promega, Madison, Wis.; catalog no. N1110) were added using a micro-injector connected to the plate reader (BioTek Synergy HT; Winooski, Vt.). […]

Molecule: O=C1NC(=O)C(c2ccccc2)(c2ccccc2)N1 [phenytoin]
- effect on reporter activity ([1]; 80 μM, at DIV14, FIG. 4A): significantly reduced reporter activity

Molecule: NC(=O)N1c2ccccc2C=Cc2ccccc21 [CBZ, carbamazepine]
- effect on SNAR ([1]; 50 μM, FIG. 4A): reduced SNAR

Molecule: N#CC(=C(/N)Sc1ccccc1N)/C(C#N)=C(\N)Sc1ccccc1N [U0126]
- effect on SNAR activity / accumulation [1]: significantly suppressed SNAR accumulation

Molecule: NC(CCCP(=O)(O)O)C(=O)O (centres unmarked) [AP5]
- effect of individual inhibitors on SNAR activity [1]: dramatically suppressed SNAR activity
- effect on reporter accumulation [2]: decrease in reporter accumulation similar to that of the non-specific reporter

Molecule: N#Cc1cc2[nH]c(=O)c(=O)[nH]c2cc1[N+](=O)[O-] [CNQX]
- time after treatment at which the increase in SNAR activity was observed ([1]; kinetic analysis, chronic blockage of AMPAR-mediated transmission, FIG. 3B): 16 to 40 h
- effect of individual inhibitors on SNAR activity [1]: increased SNAR activity

B1: BDNF: a neurotropic factor that enhances synapse formation and transmission (protein, UniProt P23560 19-247, looked up)
Neurotrophic factor BDNF …: APMKEANIRGQGGLAYPGVRTHGTLESVNGPKAGSRGLTSLADTFEHVIEELLDEDQKVRPNEENNKDADLYTSRVMLSSQVPLEPPLLFLLEEYKNYLDAANMSMRVRRHSDPARRGELSVCDSISEWVTAADKKTAVDMSGGTVTVLEKVPVSKGQLKQYFYETKCNPMGYTKEGCRGIDKRHWNSQCRTTQSYVRALTMDSKKRIGWRFIRIDTSCVCTLTIKRGR
- effect on reporter activity compared to a vehicle control ([1]; 50 ng/mL, 16 hours and 40 hours after the treatment, FIG. 4B): significantly and robustly increased reporter activity
